Results published in PubChem BioAssay AID540268 (Broad Institute, 2011).
Calls of active or inactive are those of the source. How the calls were made is not given here.

Experiment: growth inhibition of yeast carrying parasite Hsp90, dose response, anti-malarial Hsp90 inhibitor project, ATP luminescence, 48 h, cherry-picked samples (AID 540268);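 on activity change, negative = inhibition: 0% = neutral control wells and -100% = positive control wells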
Conditions: yeast expressing the parasite Hsp90, ATP luminescence

| SMILES | AC50 [µM] |
| --- | --- |
| CCN1C/C(=C\c2cccc([N+](=O)[O-])c2)C(=O)/C(=C/c2cccc([N+](=O)[O-])c2)C1 | 5.63 |
| Cc1cccc(CS(=O)(=O)c2ncc(Cl)c(C(=O)Nc3ccc(F)cc3)n2)c1 | 2.92 |
| CCN1/C(=C\c2ccc3cc(C)ccc3[n+]2CC)Sc2cc(C)c(C)cc21 | 3.51 |
| CCCC(=O)NC1=C(Cl)C(=O)c2ccccc2C1=O | < 0.195 |
| Cc1[nH]n(-c2ccc([N+](=O)[O-])cc2)c(=O)c1C=NCCN1CCN(C(=O)c2cccc(F)c2)CC1 | 5.83 |
| O=C1C2(Cl)C3(Cl)C4(Cl)C(Cl)(Cl)C5(Cl)C3(Cl)C1(Cl)C5(Cl)C24Cl (centres undefined) | 2.93 |
| CCN1C(=O)/C(=C\C(=O)c2cccs2)c2cc(Br)ccc21 | 4.28 |
| CC1=NN(c2nc3ccccc3[nH]2)C(=O)/C1=C/N(C)C | 2.23 |
| COc1cccc(/C=N/Nc2ccc([N+](=O)[O-])cn2)c1O | 4.36 |
| CC(=O)NC(c1ccc(C(C)C)cc1)c1ccc2cccnc2c1O (centres undefined) | 2.24 |
| Cc1cc(C)c2c(N=NN3CCCCC3)[nH]nc2n1 | 4.73 |
| CCOC(=O)c1c(-n2c(C)cc(C=C3C(=O)NC(=S)NC3=O)c2C)sc2c1CCCC2 | 2.99 |
| CC(=O)NC(c1ccccc1)c1cc(Cl)c2cccnc2c1O (centres undefined) | 7.28 |
| CN(C)c1ccc(-n2cccc2/C=C/[N+](=O)[O-])cc1 | 4.83 |
| O=C(Oc1ccc(Cl)c2cccnc12)c1cccnc1 | 7.85 |
| COC(=O)c1cc(=O)n(-c2ccc(F)cc2)c(=Nc2ccc(F)cc2)s1 | 13.9 |
| CC(=NNC(=S)N1CC2CCC(CC2)C1)c1nccs1 | 25.7 |
| CCCCCCCCCCCCCCCCn1cc[n+](C)c1 | 2.89 |
| Cc1cc(N=Nc2ccc3ccccc3c2)ccc1O | 2.93 |
| COc1ccc(NC(=O)CCC(=O)N/N=C/c2ccc([N+](=O)[O-])s2)cc1 | 3.33 |
| CCN(CC)c1ccc(C(=C2C=CC(=[N+](CC)CC)C=C2)c2ccc(N(CC)CC)cc2)cc1 | 0.735 |
| O=C(/C(=C/O)N=Nc1cccc(C(F)(F)F)c1)c1ccccc1 | 4.14 |
| CCC(C)(C)c1ccc(OCCCC[n+]2cccc(C)c2C)c(C(C)(C)CC)c1 | 4.06 |
| O=[N+]([O-])c1ccc(S(=O)(=O)c2cccc(C(F)(F)F)c2)nc1 | 2.52 |
| CCCCCCCCCCCCCCCCn1cc[n+](CC(C)=O)c1 | 4.39 |
| CCCCC(=O)NC(c1cccs1)c1cc(Cl)c2cccnc2c1O (centres undefined) | 4.18 |

| SMILES | AC50 [µM] |
| --- | --- |
| O=C(OCC(=O)N1CCN(C(=O)c2ccco2)CC1)c1cc(-c2ccccc2)nc2ccccc12 | 3.6 |
| Cc1ccc(C(=O)Sc2cccccc2=O)cc1 | 6.77 |
| CC(C)c1c(O)ccc2c1CC[C@H]1C(C)(C)CCC[C@]21C | 2.86 |
| O=C(C=P(c1ccccc1)(c1ccccc1)c1ccccc1)c1ccccc1-c1ccccc1C(=O)C=P(c1ccccc1)(c1ccccc1)c1ccccc1 | 5.12 |
| Oc1c(C(Nc2nc3ccccc3s2)c2ccco2)ccc2cccnc12 (centres undefined) | 24.8 |
| Cc1cc(/C=C\c2ccc3cc(N(C)C)ccc3[n+]2C)c(C)n1-c1ccccc1 | 4.39 |
| Cc1cc(C)c(S(=O)(=O)NCC23C=CC(O2)C2C(=O)N(c4ccccc4)C(=O)C23)c(C)c1 (centres undefined) | 3.21 |
| COc1ccc(C(=O)NC(=S)NNC(=O)c2cnccn2)cc1 | 2.98 |
| CCc1ccc(-c2cc(C(=O)N3N=C(C(F)F)CC3(O)C(F)F)c3ccccc3n2)cc1 (centres undefined) | 3.24 |
| COc1ccc(-c2nnc(SCC(=O)Oc3ccc(C)cc3)o2)cc1 | 2.02 |
| O=C(/C=C/c1ccc(F)cc1)NC(=S)NNC(=O)c1cnccn1 | 2.71 |
| O=C(/C=C/N1CCOCC1)c1ccc(-c2ccccc2)cc1 | 4.23 |
| O=C1C=CC(=O)N1c1ccc2c(c1)Cc1cc(F)ccc1-2 | < 0.195 |
| CC1=CC(C)CC(C)OC(=O)CC(c2ccc(O)cc2)NC(=O)C(Cc2c(Br)[nH]c3ccccc23)N(C)C(=O)C(C)NC(=O)C(C)C1 (centres undefined) | 5.2 |
| CC(C)=CCc1cc([C@@H]2COc3c(ccc4c3C=CC(C)(C)O4)C2)c(O)cc1O | 0.265 |
| COc1cccc(N=Nc2ccc(O)c3ncccc23)c1 | 3.57 |
| O=C1Nc2ccc(Br)cc2C12NNc1ccccc1O2 (centres undefined) | 1.46 |
| Cc1ccc(N2C(=O)C3C4C=CC(CNC(=S)N5CCN(c6cccc(C)c6)C(C)C5)(O4)C3C2=O)cc1 (centres undefined) | 4.65 |
| C=CCn1c(O)c(C2=c3ccccc3=NC2=O)c2ccccc21 | 0.844 |
| CCCC(=O)NC(c1ccc(C)cc1)c1ccc2cccnc2c1O (centres undefined) | 3.4 |
| S=C1Cc2ccccc2N1 | 3.36 |
| COc1ccc(S(=O)(=O)NC2CC3CCC2C3)cc1Br (centres undefined) | 3.52 |
| CCOC(=O)C1CCCN(C2CC(=O)N(c3cccc(C(F)(F)F)c3)C2=O)C1 (centres undefined) | 4.24 |
| COc1ccc2c(n1)Sc1nc3ccccc3nc1N2 | 12.1 |
| O=C(NCc1ccc2c(c1)OCO2)c1ccc(Br)cc1 | 4.46 |
| COc1ccc(C2=CC3=C(Br)C(=O)C(C)(OC(=O)c4cccs4)C(=O)C3=CO2)cc1 (centres undefined) | 4.28 |

| SMILES | AC50 [µM] |
| --- | --- |
| COc1ccc(OC)c2c1C(=O)C(Cl)=C(Cl)C2=O | 1.64 |
| CC1=C(C(=O)OCc2ccccc2)C(/C=C/c2ccccc2)NC(=S)N1 (centres undefined) | < 0.195 |
| Nc1cc2c(cc1[N+](=O)[O-])-c1ccccc1C2=NO | 8.64 |
| Cc1ccc(N2C(=O)C3C4C=CC(CNC(=S)N5CCN(c6ccccc6)CC5)(O4)C3C2=O)cc1 (centres undefined) | 6.93 |
| CCCC(=O)NC(c1ccc(OC)cc1)c1ccc2cccnc2c1O (centres undefined) | 6.15 |
| CCCCCCCCCCCCCCCC[n+]1cccc2ccccc21 | 3.05 |
| N/C(=N\OC(=O)c1ccc2ccccc2c1)c1ccccc1Cl | 4.46 |
| Cn1c(/C=C/c2ccc([N+](=O)[O-])o2)nc2ccccc2c1=O | 6 |
| CCOc1ccc2nc(NC(=O)c3ccoc3C)sc2c1 | 6.99 |
| C[C@@]12C(=O)Nc3ccc(F)cc3C(=O)N1[C@H]1c3ccccc3OC[C@@H]1[C@@H]2c1ccccc1 | < 0.195 |
| CN(O)C(=S)c1ccccc1 | 4.38 |
| O=C(O)c1ccc(N/N=C/c2ccc(-c3ccccc3)cc2)cc1 | 4.22 |
| Cc1ccc(S(=O)(=O)NCC23C=CC(O2)C2C(=O)N(c4ccccc4)C(=O)C23)cc1 (centres undefined) | 4.8 |
| COc1ccc(/C=C/C(=O)c2cc(Br)ccc(=O)c2O)cc1 | 3.21 |
| O=C(CSCC(=O)N1CCCCC1)Nc1nc(-c2ccc(Cl)s2)cs1 | 4.76 |
| Oc1ccc(C2=NN(c3ccccc3)C(c3ccc(F)cc3)C2)cc1 (centres undefined) | 3.35 |
| Cc1ccc(NC(=S)N/N=C/c2ccc([N+](=O)[O-])s2)cc1 | 4.92 |
| COc1ccc2c(c1)OC[C@H]1[C@H]2N2C(=O)c3cc(Br)ccc3NC(=O)[C@@]2(C)[C@H]1c1ccccc1 | 0.658 |
| O=c1c2ccccc2sn1-c1ccccc1 | 9.19 |
| CCOC(=O)c1c(C)oc2c1c(C(c1cccnc1)N1CCOCC1)c(O)c1ccccc12 (centres undefined) | 5.35 |
| Cc1ccc(O)c(NC(=S)NC(=O)c2ccc(-c3ccc(Cl)cc3)o2)c1 | 14.7 |
| O=C(O)/C=C/C(=O)c1ccc2c(c1)CCc1ccccc1-2 | 26.3 |
| CC(C)C(=O)NC(c1cccc([N+](=O)[O-])c1)c1ccc2cccnc2c1O (centres undefined) | 2.73 |
| CC(C)CC(=O)NC(c1cccs1)c1ccc2cccnc2c1O (centres undefined) | 2.72 |

Same assay, conditions: yeast expressing the parasite Hsp90, ATP luminescence, at 26 µM (top of the series)

| SMILES | activity change, negative = inhibition |
| --- | --- |
| O=C1C(=C(I)I)c2ccccc2-c2ccccc21 | 26.6% (inactive) |
| CC(C)(C)c1nn(-c2ccccc2)c2[nH]c(=O)c(CNc3ccc4c(c3)OCCO4)cc12 | -106% (inactive) |
| CCCCN1C(=O)/C(=C/C=C2\Oc3ccccc3N2CC)SC1=S | 32.9% (inactive) |
